Data on 2 molecules can be found in US20200131156A1, “ARYLSULFONYLPYROLECARBOXAMIDE DERIVATIVES AS Kv3 POTASSIUM CHANNEL ACTIVATORS” (H. Lundbeck A/S, priority 2018, published 2020).

Like-named read-outs stand apart in the source and are kept apart here.

Data set [1] deals with hKv1.1/1.2 (Homo sapiens, UniProt P16389+Q09470). In words: Off-target Kv1.1/1.2 inhibition electrophysiology (Qpatch). Type of data set: cell-based. The note with it: up to 30 μM. How it is done:
(§1) The activity of selected compound examples at three key ion channel off targets was measured, namely Nav1.1, Kv1.1/1.2 and Kv7.2/7.3.
Effects of selected examples on inhibition of the voltage gated heteromeric potassium channel Kv1.1/1.2 was also tested in a use-dependent manner by electrophysiology at concentrations up to 30 μM.

The nature of data set [2]: Unbound fraction in plasma (mouse PK table footnote). The data set is classed as in vitro ADME.
Data set [3] is described as follows: Unbound fraction in plasma. The data set is classed as in vitro ADME, rat.
Data set [4] has as its target T1, hKv3.1b (Homo sapiens, UniProt P48547).
T1 construct: expressed in transfected cells
T1 sequence (P48547 1-585 isoform P48547-2): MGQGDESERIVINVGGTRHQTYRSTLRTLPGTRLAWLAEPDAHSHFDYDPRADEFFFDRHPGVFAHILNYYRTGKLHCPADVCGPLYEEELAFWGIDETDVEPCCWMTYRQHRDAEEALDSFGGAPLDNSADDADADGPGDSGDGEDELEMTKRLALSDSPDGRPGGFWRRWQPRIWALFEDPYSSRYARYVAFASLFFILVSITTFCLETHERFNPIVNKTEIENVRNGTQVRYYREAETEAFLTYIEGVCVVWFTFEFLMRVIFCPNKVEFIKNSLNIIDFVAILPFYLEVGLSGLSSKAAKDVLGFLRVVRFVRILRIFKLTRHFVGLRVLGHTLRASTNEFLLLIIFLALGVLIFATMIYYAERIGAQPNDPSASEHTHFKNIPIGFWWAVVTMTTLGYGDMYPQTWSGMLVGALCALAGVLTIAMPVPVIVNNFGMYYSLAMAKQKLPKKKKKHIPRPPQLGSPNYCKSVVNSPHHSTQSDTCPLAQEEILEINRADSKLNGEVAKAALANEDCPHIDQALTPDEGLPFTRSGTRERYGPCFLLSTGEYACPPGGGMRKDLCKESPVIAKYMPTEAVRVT
As to the kind of experiment: Automated patch clamp (QPatch-16x) on HEK-293 cells stably expressing hKv3.1b. The following applies: for hKv3.1 (Qpatch) ECΔ30% increase: concentration increasing current by 30% at the −10 mV step; for hKv3.1 (Qpatch) ECΔ30% increase / hKv3.1 (Qpatch) ECΔ5 mV: automated patch clamp; for ECdelta5 mV: concentration needed to shift the activation threshold 5 mV; for hKv3.1 (Qpatch) ECΔ5 mV: concentration that shifts activation threshold by 5 mV in hyperpolarized direction; for Threshold Shift: maximum absolute hyperpolarizing shift of activation threshold at tested concentrations 0.37-30 μM. The data set is classed as cell-based. The essentials: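 Whole-cell automated patch clamp, extracellular pH 7.4, 4 mM Na2ATP intracellular; holding −80 mV, 200 ms steps −70 to +10 mV. Five ascending concentrations (0.37–30 μM) per cell, ~3 min each, 0.33% DMSO vehicle. Activation threshold (5% of vehicle peak at 10 mV) shift fitted sigmoidally; ECdelta5 mV read from curve.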

In data set [5] the target is hNav1.1 (Homo sapiens, UniProt P35498). As to the kind of experiment: Off-target Nav1.1 electrophysiology (Qpatch), multiple state readouts. The note with it: resting, use-dependent and inactivated state readouts, up to 30 μM; for EC50: activation; for IC50: inhibition. The data set is classed as cell-based. On the procedure: as §1
The voltage gated sodium channel, Nav1.1, is known to have state-dependent pharmacology, therefore, compound examples were tested for effects on inhibition or activation at the resting state channel, a use-dependent readout, and an inactivated state readout by electrophysiology, at concentrations up to 30 μM.
(In general: In patch-clamp work, channel activity is measured electrically.)

Data set [6] in a line: Unbound fraction in brain. Type of data set: in vitro ADME, rat.
Where [7] appears, read: resting, read-out: hKv1.1/1.2 (Qpatch) Resting IC50.
Setting [8] is: use-dependent, read-out: hKv1.1/1.2 (Qpatch) Use-dependent IC50.

hKv1.1/1.2, sequence (Q09470 whole entry): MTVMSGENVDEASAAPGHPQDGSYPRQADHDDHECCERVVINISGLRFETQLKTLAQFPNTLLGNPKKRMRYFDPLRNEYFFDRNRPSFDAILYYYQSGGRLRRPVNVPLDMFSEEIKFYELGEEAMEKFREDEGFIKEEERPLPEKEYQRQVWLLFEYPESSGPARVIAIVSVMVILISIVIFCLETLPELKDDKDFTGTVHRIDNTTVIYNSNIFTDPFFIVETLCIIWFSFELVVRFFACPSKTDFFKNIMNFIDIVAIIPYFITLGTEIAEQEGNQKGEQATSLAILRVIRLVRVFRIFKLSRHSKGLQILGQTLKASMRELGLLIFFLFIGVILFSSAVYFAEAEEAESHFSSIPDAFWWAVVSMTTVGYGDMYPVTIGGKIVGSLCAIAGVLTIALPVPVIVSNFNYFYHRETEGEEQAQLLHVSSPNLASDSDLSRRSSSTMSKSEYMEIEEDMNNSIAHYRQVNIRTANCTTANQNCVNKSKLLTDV
hKv1.1/1.2, sequence (P16389 whole entry): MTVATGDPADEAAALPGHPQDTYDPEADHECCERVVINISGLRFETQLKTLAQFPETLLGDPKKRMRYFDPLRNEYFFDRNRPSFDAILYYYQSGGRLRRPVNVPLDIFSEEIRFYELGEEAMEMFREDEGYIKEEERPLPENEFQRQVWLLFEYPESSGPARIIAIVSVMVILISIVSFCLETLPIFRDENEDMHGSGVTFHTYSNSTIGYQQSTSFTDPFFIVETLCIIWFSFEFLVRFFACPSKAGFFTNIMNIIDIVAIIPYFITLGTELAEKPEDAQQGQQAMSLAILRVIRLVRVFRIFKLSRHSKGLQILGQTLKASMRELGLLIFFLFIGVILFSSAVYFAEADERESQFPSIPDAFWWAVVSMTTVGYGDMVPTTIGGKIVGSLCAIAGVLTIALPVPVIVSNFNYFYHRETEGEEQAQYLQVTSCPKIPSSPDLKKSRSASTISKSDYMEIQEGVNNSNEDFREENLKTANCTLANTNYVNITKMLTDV

Regarding `Cc1ccc(S(=O)(=O)n2ccc(C(=O)NCc3ncco3)c2)cc1` [Compound 86, 1-(4-methylbenzene-1-sulfonyl)-N-[(1,3-oxazol-2-yl)methyl]-1H-pyrrole-3-carboxamide], in data set [1] (setting [7]), the IC50 is above 30 µM. Besides, the IC50 in data set [1] (setting [8]) was at least 30 µM. The same molecule returned a fraction unbound in data set [2] of 0.08. Further, the unbound share (fraction unbound) in data set [3] (rat table footnote) was 0.12. For the same molecule, in data set [4], the “hKv3.1 (Qpatch) ECΔ30% increase” value was 2.9 µM, the “ECdelta5 mV” value was found to be 2800 nM, the “hKv3.1 (Qpatch) ECΔ5 mV” value was found to be 2.7 µM and the “Threshold Shift” value was found to be 17 mV. Further, in data set [5], the half-maximal effective concentration (EC50) was above 30 µM and the IC50 was above 30 µM. The same molecule came in with an unbound share (fraction unbound) in data set [6] (rat table footnote) of 0.12.

Regarding `Cc1cnc(CNC(=O)c2ccn(S(=O)(=O)c3ccc(F)cc3C)c2)cn1` [Compound 90, 1-(4-fluoro-2-methylbenzene-1-sulfonyl)-N-[(5-methylpyrazin-2-yl)methyl]-1H-pyrrole-3-carboxamide], in data set [1] (setting [7]), the IC50 was above 30 µM. Besides, the IC50 in data set [1] (setting [8]) was above 30 µM. The molecule further yielded a fraction unbound in data set [2] of 0.1. The molecule further displayed a free fraction (fraction unbound) in data set [3] (rat PK table footnote) of 0.1. For the same molecule, in data set [4], the “hKv3.1 (Qpatch) ECΔ30% increase” value turned out to be 1.6 µM, the “ECdelta5 mV” value amounted to 1300 nM, the “hKv3.1 (Qpatch) ECΔ5 mV” value came out at 1.2 µM and the “Threshold Shift” value is given as 32 mV. Further, in data set [5], the concentration giving a half-maximal response (EC50) is above 30 µM and the IC50 was above 30 µM. In addition, the unbound share (fraction unbound) in data set [6] (rat PK table footnote) worked out at 0.08.

What is called fraction unbound is free concentration divided by total concentration. The low end stands for little free substance, the high end for much free substance. As a reminder, the EC50 is the concentration at which the effect is half-maximal. Low values mean greater potency, high ones weaker potency.
